Converted amounts (≈) assume the structure as drawn. Like-named read-outs stand apart in the source and are kept apart here.
What was measured:
[1] = test system: mouse macrophage RAW 264.7 cells
in vitro = conditions: mouse
[2] = test system: Mycobacterium tuberculosis H37Rv (ATCC27294); test: microbe, parasite or virus in culture; type: cell-based
[3] = test system: M. tuberculosis H37Rv nutrient-starved culture; type: cell-based, Mycobacterium tuberculosis
[4] = RAW 264.7 cells, 50 μg/mL, 48 hr, MTT
[5] = Mycobacterium tuberculosis, ATCC27294|H37RV

## O=[N+]([O-])c1ccc(S(=O)(=O)N2CCN(C(c3ccccc3)c3ccccc3)CC2)c([N+](=O)[O-])c1 [7a, 1-Benzhydryl-4-((2,4-dinitrophenyl)sulfonyl)piperazine]
[1]; [4]
  % cell inhibition at 50 μg/mL: 57.6%
In vitro
  IC50: > 50 µg/mL
[2]; Mtb H37Rv, repeated in Table 2
  MIC: 1.56 µg/mL (≈ 3.23 µM)
[2]; [5]
  MIC: 1.56 µg/mL (≈ 3.23 µM)

## O=C(CCCNS(=O)(=O)c1ccc([N+](=O)[O-])cc1[N+](=O)[O-])N1CCN(C(c2ccc(F)cc2)c2ccc(F)cc2)CC1 [7aa, N-(4-(4-(Bis(4-fluorophenyl)methyl)piperazin-1-yl)-4-oxobutyl)-2,4-dinitrobenzene Sulfonamide]
[1]; [4]
  % cell inhibition at 50 μg/mL: 59.2%
In vitro
  IC50: > 50 µg/mL
[2]; Mtb H37Rv, repeated in Table 2
  MIC: 0.78 µg/mL (≈ 1.29 µM)
[2]; [5]
  MIC: 0.78 µg/mL (≈ 1.29 µM)

## O=[N+]([O-])c1ccccc1S(=O)(=O)N1CCN(C(c2ccccc2)c2ccccc2)CC1 [7b, 1-Benzhydryl-4-((2-nitrophenyl)sulfonyl)piperazine]
[2]; [5]
  MIC: > 25 µg/mL

## O=[N+]([O-])c1ccc(S(=O)(=O)N2CCN(C(c3ccccc3)c3ccccc3)CC2)cc1 [7c, 1-Benzhydryl-4-((4-nitrophenyl)sulfonyl)piperazine]
[2]; [5]
  MIC: > 25 µg/mL

## O=[N+]([O-])c1ccc(S(=O)(=O)N2CCN(C(c3ccc(F)cc3)c3ccc(F)cc3)CC2)c([N+](=O)[O-])c1 [7d, 1-(Bis(4-fluorophenyl)methyl)-4-((2,4-dinitrophenyl)sulfonyl)piperazine]
[2]; [5]
  MIC: > 25 µg/mL

## O=[N+]([O-])c1ccccc1S(=O)(=O)N1CCN(C(c2ccc(F)cc2)c2ccc(F)cc2)CC1 [7e, 1-(Bis(4-fluorophenyl)methyl)-4-((2-nitrophenyl)sulfonyl)piperazine]
[2]; [5]
  MIC: > 25 µg/mL

## O=[N+]([O-])c1ccc(S(=O)(=O)N2CCN(C(c3ccc(F)cc3)c3ccc(F)cc3)CC2)cc1 [7f, 1-(Bis(4-fluorophenyl)methyl)-4-((4-nitrophenyl)sulfonyl)piperazine]
[2]; [5]
  MIC: > 25 µg/mL

## O=C(CNS(=O)(=O)c1ccc([N+](=O)[O-])cc1[N+](=O)[O-])N1CCN(C(c2ccccc2)c2ccccc2)CC1 [7g, N-(2-(4-Benzhydrylpiperazin-1-yl)-2-oxoethyl)-2,4-dinitrobenzenesulfonamide]
[2]; [5]
  MIC: 12.5 µg/mL (≈ 23.2 µM)

## O=C(CCNS(=O)(=O)c1ccc([N+](=O)[O-])cc1[N+](=O)[O-])N1CCN(C(c2ccccc2)c2ccccc2)CC1 [7k, N-(3-(4-Benzhydrylpiperazin-1-yl)-3-oxopropyl)-2,4-dinitrobenzenesulfonamide]
[1]; [4]
  % cell inhibition at 50 μg/mL: 61.4%
In vitro
  IC50: > 50 µg/mL
[2]; Mtb H37Rv, repeated in Table 2
  MIC: 0.78 µg/mL (≈ 1.41 µM)
[2]; [5]
  MIC: 0.78 µg/mL (≈ 1.41 µM)

## O=C(CCNS(=O)(=O)c1ccc([N+](=O)[O-])cc1[N+](=O)[O-])N1CCN(C(c2ccc(F)cc2)c2ccc(F)cc2)CC1 [7l, N-(3-(4-(Bis(4-fluorophenyl)methyl)piperazin-1-yl)-3-oxopropyl)-2,4-dinitrobenzene Sulfonamide]
[1]; [4]
  % cell inhibition at 50 μg/mL: 60.2%
In vitro
  IC50: > 50 µg/mL
[2]; Mtb H37Rv, repeated in Table 2
  MIC: 0.78 µg/mL (≈ 1.32 µM)
[2]; [5]
  MIC: 0.78 µg/mL (≈ 1.32 µM)

## O=C(C1CCN(S(=O)(=O)c2ccc([N+](=O)[O-])cc2[N+](=O)[O-])CC1)N1CCN(C(c2ccccc2)c2ccccc2)CC1 [7o, (4-Benzhydrylpiperazin-1-yl) (1-((2,4-dinitrophenyl)sulfonyl)piperidin-4-yl)methanone]
[1]; [4]
  % cell inhibition at 50 μg/mL: 57.2%
In vitro
  IC50: > 50 µg/mL
[2]; Mtb H37Rv, repeated in Table 2
  MIC: 0.78 µg/mL (≈ 1.31 µM)
[2]; [5]
  MIC: 0.78 µg/mL (≈ 1.31 µM)

## O=C(C1CCN(S(=O)(=O)c2ccccc2[N+](=O)[O-])CC1)N1CCN(C(c2ccccc2)c2ccccc2)CC1 [7p, (4-Benzhydrylpiperazin-1-yl) (1-((2-Nitrophenyl)sulfonyl)piperidin-4-yl)methanone]
[2]; [5]
  MIC: > 25 µg/mL

## O=C(C1CCN(S(=O)(=O)c2ccc([N+](=O)[O-])cc2)CC1)N1CCN(C(c2ccccc2)c2ccccc2)CC1 [7q, (4-Benzhydrylpiperazin-1-yl) (1-((4-Nitrophenyl)sulfonyl)piperidin-4-yl)methanone]
[2]; [5]
  MIC: > 25 µg/mL

## O=C(C1CCN(S(=O)(=O)c2ccc([N+](=O)[O-])cc2[N+](=O)[O-])CC1)N1CCN(C(c2ccc(F)cc2)c2ccc(F)cc2)CC1 [7r, (4-(Bis(4-fluorophenyl)methyl)piperazin-1-yl) (1-((2,4-Nitrophenyl)sulfonyl)piperidin-4-yl)methanone]
[1]
  % cell inhibition at 50 μg/mL: 57.2%
  IC50 approximation: >50 µg/mL
[2]
  MIC: 1.56 µg/mL (≈ 2.48 µM)
[3]
  nutrient starvation (log reduction): 2.2 folds

## O=C(C1CCCN(S(=O)(=O)c2ccc([N+](=O)[O-])cc2[N+](=O)[O-])C1)N1CCN(C(c2ccccc2)c2ccccc2)CC1 (stereo not shown) [7s, (4-Benzhydrylpiperazin-1-yl) (1-((2,4-Dinitrophenyl)sulfonyl)piperidin-3-yl)methanone]
[1]; [4]
  % cell inhibition at 50 μg/mL: 59.2%
In vitro
  IC50: > 50 µg/mL
[2]; Mtb H37Rv, repeated in Table 2
  MIC: 0.78 µg/mL (≈ 1.31 µM)
[2]; [5]
  MIC: 0.78 µg/mL (≈ 1.31 µM)

## O=C(C1CCCN(S(=O)(=O)c2ccccc2[N+](=O)[O-])C1)N1CCN(C(c2ccccc2)c2ccccc2)CC1 (stereo not shown) [7t, (4-Benzhydrylpiperazin-1-yl) (1-((2-Nitrophenyl)sulfonyl)piperidin-3-yl)methanone]
[2]; [5]
  MIC: > 25 µg/mL

## O=C(C1CCCN(S(=O)(=O)c2ccc([N+](=O)[O-])cc2)C1)N1CCN(C(c2ccccc2)c2ccccc2)CC1 (stereo not shown) [7u, (4-Benzhydrylpiperazin-1-yl) (1-((4-Nitrophenyl)sulfonyl)piperidin-3-yl)methanone]
[2]; [5]
  MIC: > 25 µg/mL

## O=C(C1CCCN(S(=O)(=O)c2ccc([N+](=O)[O-])cc2[N+](=O)[O-])C1)N1CCN(C(c2ccc(F)cc2)c2ccc(F)cc2)CC1 (stereo not shown) [7v, (4-(Bis(4-fluorophenyl)methyl)piperazin-1-yl) (1-((2,4-Dinitrophenyl)sulfonyl)piperidin-3-yl)methanone]
[1]; [4]
  % cell inhibition at 50 μg/mL: 55.7%
In vitro
  IC50: > 50 µg/mL
[2]; Mtb H37Rv, repeated in Table 2
  MIC: 0.78 µg/mL (≈ 1.24 µM)
[2]; [5]
  MIC: 0.78 µg/mL (≈ 1.24 µM)

## O=C(C1CCN(S(=O)(=O)c2ccc([N+](=O)[O-])cc2[N+](=O)[O-])C1)N1CCN(C(c2ccccc2)c2ccccc2)CC1 (stereo not shown) [7y, (4-Benzhydrylpiperazin-1-yl) (1-((2,4-Dinitrophenyl)sulfonyl)pyrrolidin-3-yl)methanone]
[1]; [4]
  % cell inhibition at 50 μg/mL: 59.6%
In vitro
  IC50: > 50 µg/mL
[2]; Mtb H37Rv, repeated in Table 2
  MIC: 0.78 µg/mL (≈ 1.35 µM)
[2]; [5]
  MIC: 0.78 µg/mL (≈ 1.35 µM)

## CC[C@@H](CO)NCCN[C@@H](CC)CO [Ethambutol, reference compound]
[2]; [5]
  MIC: 1.56 µg/mL (≈ 7.64 µM)

## NNC(=O)c1ccncc1 [Isoniazid, reference compound]
[1]; [4]
  % cell inhibition at 50 μg/mL: 97%
In vitro
  IC50: > 25 µg/mL
[2]; Mtb H37Rv, repeated in Table 2
  MIC: 0.05 µg/mL (≈ 0.365 µM)

## CO[C@H]1/C=C/O[C@@]2(C)Oc3c(C)c(O)c4c(O)c(c(/C=N/N5CCN(C)CC5)c(O)c4c3C2=O)NC(=O)/C(C)=C\C=C\[C@H](C)[C@H](O)[C@@H](C)[C@@H](O)[C@@H](C)[C@H](OC(C)=O)[C@@H]1C [Rifampicin, reference compound]
[1]; [4]
  % cell inhibition at 50 μg/mL: 90%
In vitro
  IC50: > 25 µg/mL
[2]; Mtb H37Rv strain, triplicate, Table 1 and text
  MIC: 0.10 µg/mL (≈ 0.122 µM)
[2]; Mtb H37Rv, repeated in Table 2
  MIC: 0.1 µg/mL (≈ 0.122 µM)
[2]; [5]
  MIC: 0.1 µg/mL (≈ 0.122 µM)
